Assay results: PubChem BioAssay AID248 (DTP/NCI, 2004)
Values joined by “and” are separate entries in the source; they are usually repeats but may differ in a detail not shown here. Identical values can stand only once. Inconclusive results and toxic doses are left out. Cut-off read from the data, not from the text of the source: active = T/C of 150% or more; inactive = T/C below 125%. Square brackets hold non-standard residues; d marks the D form. Peptide text beside a SMILES is read from it. * marks the point of attachment. Cbz = O=C(OCc1ccccc1)*; Abu = CC[CH](N)C(=O)O; OBn = c1ccc(CO*)cc1

System: L1210 leukemia ip in BDF1 mice, survival T/C
Assay: NCI In Vivo Anticancer Drug Screen. Data for tumor model L1210 Leukemia (intraperitoneal) in B6D2F1 (BDF1) mice
Details: endpoint: mean survival time, higher = longer survival
How it was run: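 Tumor was transplanted into mice, which were then dosed with test compound or vehicle alone. Survival was recorded for each group, and the treated figure was expressed relative to the control figure.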

[1] = dose: 100.0 mg/kg/injection, schedule: Q01DX009 (ip), vehicle: Klucel (hydroxypropylcellulose) (HPC)
[2] = dose: 100.0 mg/kg/injection, schedule: Q04DX003 (ip), vehicle: Klucel (hydroxypropylcellulose) (HPC)
[3] = dose: 100.0 mg/kg/injection, schedule: Q04DX003 (ip), vehicle: saline with Tween-80
[4] = dose: 200.0 mg/kg/injection, schedule: Q01DX009 (ip), vehicle: Klucel (hydroxypropylcellulose) (HPC)
[5] = dose: 200.0 mg/kg/injection, schedule: Q04DX003 (ip), vehicle: Klucel (hydroxypropylcellulose) (HPC)
[6] = dose: 200.0 mg/kg/injection, schedule: Q04DX003 (ip), vehicle: saline with Tween-80
[7] = dose: 400.0 mg/kg/injection, schedule: Q01DX009 (ip), vehicle: Klucel (hydroxypropylcellulose) (HPC)
[8] = dose: 400.0 mg/kg/injection, schedule: Q04DX003 (ip), vehicle: Klucel (hydroxypropylcellulose) (HPC)
[9] = dose: 400.0 mg/kg/injection, schedule: Q04DX003 (ip), vehicle: saline with Tween-80
[10] = dose: 100.0 mg/kg/injection, schedule: Q01DX009 (ip), vehicle: saline
[11] = dose: 200.0 mg/kg/injection, schedule: Q01DX009 (ip), vehicle: saline
[12] = dose: 400.0 mg/kg/injection, schedule: Q01DX009 (ip), vehicle: saline
[13] = dose: 100.0 mg/kg/injection, schedule: Q04DX002 (ip), vehicle: Klucel (hydroxypropylcellulose) (HPC)
[14] = dose: 200.0 mg/kg/injection, schedule: Q04DX002 (ip), vehicle: Klucel (hydroxypropylcellulose) (HPC)
[15] = dose: 100.0 mg/kg/injection, schedule: Q01DX009 (ip), vehicle: saline with Tween-80
[16] = dose: 200.0 mg/kg/injection, schedule: Q01DX009 (ip), vehicle: saline with Tween-80
[17] = dose: 100.0 mg/kg/injection, schedule: Q04DX002 (ip), vehicle: saline with Tween-80
[18] = dose: 200.0 mg/kg/injection, schedule: Q04DX002 (ip), vehicle: saline with Tween-80
[19] = dose: 400.0 mg/kg/injection, schedule: Q04DX002 (ip), vehicle: Klucel (hydroxypropylcellulose) (HPC)

Measured: T/C

O=C(/C=C\c1ccc2c(c1)OCO2)/C=C/c1ccc2c(c1)OCO2
inactive: [1] 97 % of control | [2] 92 % of control | [3] 97 % of control | [4] 88 % of control | [5] 101 % of control | [6] 94 % of control | [7] 87 % of control | [8] 94 % of control | [9] 90 % of control

CC(=O)N/C(=C\c1ccccc1)C(N)=O
inactive: [3] 91 % of control | [6] 97 % of control | [9] 96 % of control

CCOC(=O)c1cnc(SC)nc1Nc1ccc(Br)cc1
inactive: dose: 50.0 mg/kg/injection, schedule: Q01DX009 (ip), vehicle: Klucel (hydroxypropylcellulose) (HPC) 93 % of control | [1] 92 % of control | [2] 124 % of control | [4] 88 % of control | [5] 124 % of control | [8] 87 % of control

NCCCC(=O)O
inactive: dose: 100.0 mg/kg/injection, schedule: Q01DX001 (ip), vehicle: saline 99 % of control | [10] 100 % of control | dose: 100.0 mg/kg/injection, schedule: Q04DX003 (ip), vehicle: saline 103 % of control | dose: 200.0 mg/kg/injection, schedule: Q01DX001 (ip), vehicle: saline 105 % of control | [11] 90 % of control | dose: 200.0 mg/kg/injection, schedule: Q04DX003 (ip), vehicle: saline 98 % of control | dose: 400.0 mg/kg/injection, schedule: Q01DX001 (ip), vehicle: saline 101 % of control | [12] 94 % of control | dose: 400.0 mg/kg/injection, schedule: Q04DX003 (ip), vehicle: saline 101 % of control

Cc1c(CBr)c2ccccc2[nH]c1=O
inactive: dose: 100.0 mg/kg/injection, schedule: Q01DX001 (ip), vehicle: other 97 % of control | dose: 200.0 mg/kg/injection, schedule: Q01DX001 (ip), vehicle: other 108 % of control

O=C1C2C(c3cc4ccccc4n31)N2c1ccccc1 (centres undefined)
inactive: dose: 0.75 mg/kg/injection, schedule: Q01DX001 (ip), vehicle: water 103 % of control | dose: 1.5 mg/kg/injection, schedule: Q01DX001 (ip), vehicle: water 103 % of control | dose: 3.0 mg/kg/injection, schedule: Q01DX001 (ip), vehicle: water 100 % of control | dose: 6.0 mg/kg/injection, schedule: Q01DX001 (ip), vehicle: water 106 % of control | dose: 12.0 mg/kg/injection, schedule: Q01DX001 (ip), vehicle: water 91 % of control | dose: 24.0 mg/kg/injection, schedule: Q01DX001 (ip), vehicle: water 106 % of control

CC[CH2][Pb]([CH2]CC)([CH2]CC)[O]C(=O)C(Cl)(Cl)Cl
inactive: dose: 3.12 mg/kg/injection, schedule: Q01DX009 (ip), vehicle: Klucel (hydroxypropylcellulose) (HPC) 108 % of control | dose: 3.12 mg/kg/injection, schedule: Q04DX002 (ip), vehicle: Klucel (hydroxypropylcellulose) (HPC) 105 % of control | dose: 6.25 mg/kg/injection, schedule: Q01DX009 (ip), vehicle: Klucel (hydroxypropylcellulose) (HPC) 93 % of control | dose: 6.25 mg/kg/injection, schedule: Q04DX002 (ip), vehicle: Klucel (hydroxypropylcellulose) (HPC) 93 % of control | dose: 12.5 mg/kg/injection, schedule: Q01DX009 (ip), vehicle: Klucel (hydroxypropylcellulose) (HPC) 101 % of control | dose: 12.5 mg/kg/injection, schedule: Q04DX002 (ip), vehicle: Klucel (hydroxypropylcellulose) (HPC) 97 % of control and 99 % of control

O=Cc1cc(=O)[nH]c(S)[n+]1-c1ccccc1
inactive: dose: 50.0 mg/kg/injection, schedule: Q04DX002 (ip), vehicle: Klucel (hydroxypropylcellulose) (HPC) 96 % of control | [13] 96 % of control | [14] 101 % of control

OC1C2CC3C(C2)C13 (centres undefined)
inactive: [10] 102 % of control | [11] 96 % of control | [12] 98 % of control

CC1=CC(=O)C(C)(C)C=C1
inactive: [15] 104 % of control | [3] 108 % of control | [16] 101 % of control | [6] 100 % of control | dose: 400.0 mg/kg/injection, schedule: Q01DX009 (ip), vehicle: saline with Tween-80 96 % of control

NNC(=S)Nc1cccc(Cl)c1
inactive: dose: 75.0 mg/kg/injection, schedule: Q01DX001 (ip), vehicle: saline 103 % of control | dose: 150.0 mg/kg/injection, schedule: Q01DX001 (ip), vehicle: saline 102 % of control

CC(C)(O)S(=O)(=O)O
inactive: [17] 95 % of control | [18] 101 % of control | dose: 400.0 mg/kg/injection, schedule: Q04DX002 (ip), vehicle: saline with Tween-80 98 % of control

CCC(NC(=O)OCc1ccccc1)C(=O)NC(Cc1ccc(O)cc1)C(=O)OCc1ccccc1 (centres undefined) (Cbz-[Abu]-Tyr-OBn; configuration not given here)
inactive: [1] 102 % of control | [4] 91 % of control | [7] 99 % of control

CCOC(=O)c1ccc(NC(=O)Sc2ccc(C(C)(C)C)cc2C)cc1
inactive: [15] 96 % of control | [16] 100 % of control

COc1c2c(c(OC)c3c(OC)c4ccccc4c(OC)c13)CC=CC2
inactive: dose: 50.0 mg/kg/injection, schedule: Q01DX005 (ip), vehicle: water 94 % of control | dose: 100.0 mg/kg/injection, schedule: Q01DX005 (ip), vehicle: water 87 % of control | dose: 200.0 mg/kg/injection, schedule: Q01DX005 (ip), vehicle: water 89 % of control | dose: 400.0 mg/kg/injection, schedule: Q01DX005 (ip), vehicle: water 87 % of control

CNC(=O)Oc1cccc(NC(=O)OC(C)(C)C)c1
inactive: [3] 101 % of control | [6] 94 % of control | [9] 95 % of control

CC(C)C(N)(CCN1CCOCC1)c1cccc2ccccc12 (centres undefined)
inactive: [15] 99 % of control | [17] 88 % of control | [16] 101 % of control | [18] 92 % of control

CCCCCCCCN1CCCC(OC(=O)N(C)C)C1 (centres undefined)
inactive: dose: 25.0 mg/kg/injection, schedule: Q04DX002 (ip), vehicle: saline 106 % of control | dose: 50.0 mg/kg/injection, schedule: Q04DX002 (ip), vehicle: saline 95 % of control | dose: 100.0 mg/kg/injection, schedule: Q04DX002 (ip), vehicle: saline 112 % of control

OCC1C2C=CC(C3C=CC32)C1CO (centres undefined)
inactive: [13] 98 % of control | [14] 98 % of control | [19] 113 % of control

O=C(Nc1nccs1)Nc1cccc2ccccc12
inactive: [13] 93 % of control | [14] 93 % of control | [19] 93 % of control

O=c1[nH]c2ccccc2n1C1CCN(CCCS(=O)(=O)c2ccccc2)CC1
inactive: dose: 200.0 mg/kg/injection, schedule: Q04DX003 (ip), vehicle: gum acacia 91 % of control | dose: 400.0 mg/kg/injection, schedule: Q04DX003 (ip), vehicle: gum acacia 87 % of control
